Measurements published in patent US11873306B1, “Nano-sized 5,10,15,20-tetrakis (4-hydroxyphenyl)-porphyrins pd(II) complex for super medicinal applications” (KING FAISAL UNIVERSITY, priority 2023, dated 2024).
Values after ≈ are worked out from the molar mass of the structure shown. Read-outs that look alike come from different tables or passages of the source. Values belong to the compound of their own block, whether it stands above or below them.

Key:
[1] = system: Colon carcinoma cells (HCT-116 cell line); experiment: Anti-cancer activity, colon carcinoma cells; assay type: cell-based
Microccus luteus = experiment: Antimicrobial activity, Microccus luteus (inhibition zone and MIC); assay type: cell-based
breast cancer cell line [2] = experiment: Antioxidant activity; assay type: cell-based; conditions: against a breast cancer cell line
Aspergillus flavus = experiment: Antifungal activity, Aspergillus flavus (inhibition zone and MIC); assay type: cell-based; conditions: Aspergillus flavus fungi
E. coli = experiment: Antimicrobial activity, E. coli (inhibition zone and MIC); assay type: cell-based; conditions: E. coli bacteria
breast cancer cell line [3] = experiment: Anti-cancer activity, breast cancer cell line; assay type: cell-based, human
[4] = Homo sapiens, read-out: IC50 (anticancer activity)

Compound: 5,10,15,20-Tetrakis (4-hydroxyphenyl)-Porphyrins Pd(II) complex [prepared complex]
IC50 (anticancer activity) [1]: 4.9 µg/mL
MIC (Microccus luteus): 0.75 µg/mL
inhibition zone (Microccus luteus): 41.5 mm
inhibition zone (Microccus luteus; listed as present complex): about 41.5 mm
IC50 (antioxidant activity) (breast cancer cell line [2]): 10.5 µg/mL
MIC (Aspergillus flavus): 1.75 µg/mL
inhibition zone (Aspergillus flavus): 23.25 mm
inhibition zone (Aspergillus flavus; listed as present complex): about 23.25 mm
MIC (E. coli): 1.5 µg/mL
inhibition zone (E. coli; listed as prepared nano complex): 33 mm
inhibition zone (E. coli; listed as present complex): about 33 mm
IC50 (anticancer activity) (breast cancer cell line [3]): 4.5 µg/mL

Compound: O=C1O[C@H]([C@@H](O)CO)C(O)=C1O [1-ascorbic acid, reference compound]
IC50 (antioxidant activity) (breast cancer cell line [2]): 55.2 µg/mL (≈ 313 µM)

MIC (Aspergillus flavus; read-out: MIC): 2.5 µg/mL (≈ 8.16 µM)
Compound: OC(Cn1cncn1)(Cn1cncn1)c1ccc(F)cc1F [Fluconazol, reference compound]
inhibition zone (Aspergillus flavus): 22.00 mm

Compound: CC1COc2c(N3CCN(C)CC3)c(F)cc3c(=O)c(C(=O)O)cn1c23 (stereo not drawn) [Ofloxacin, reference compound]
inhibition zone (Microccus luteus): 39.75 mm
MIC (Microccus luteus; read-out: MIC): 1.25 µg/mL (≈ 3.46 µM)
inhibition zone (E. coli): 30 mm
MIC (E. coli; Escherichia coli, read-out: MIC): 2.25 µg/mL (≈ 6.23 µM)

IC50 [1, 4]: 5.41 µg/mL (≈ 6.67 µM)
IC50 (breast cancer cell line [3]; [4]): 5.2 µg/mL (≈ 6.41 µM)
Compound: CC[C@]1(O)C[C@@H]2CN(CCc3c([nH]c4ccccc34)[C@@](C(=O)OC)(c3cc4c(cc3OC)N(C)[C@H]3[C@@](O)(C(=O)OC)[C@H](OC(C)=O)[C@]5(CC)C=CCN6CC[C@]43[C@@H]65)C2)C1 [vinblastine, reference compound]
